The target in this test is T1, human CCK2i4svR splice variant (Homo sapiens, UniProt P32239).
T1 construct: expressed in transfected cells; membrane homogenates
T1 sequence (P32239 1-516 isoform P32239-2): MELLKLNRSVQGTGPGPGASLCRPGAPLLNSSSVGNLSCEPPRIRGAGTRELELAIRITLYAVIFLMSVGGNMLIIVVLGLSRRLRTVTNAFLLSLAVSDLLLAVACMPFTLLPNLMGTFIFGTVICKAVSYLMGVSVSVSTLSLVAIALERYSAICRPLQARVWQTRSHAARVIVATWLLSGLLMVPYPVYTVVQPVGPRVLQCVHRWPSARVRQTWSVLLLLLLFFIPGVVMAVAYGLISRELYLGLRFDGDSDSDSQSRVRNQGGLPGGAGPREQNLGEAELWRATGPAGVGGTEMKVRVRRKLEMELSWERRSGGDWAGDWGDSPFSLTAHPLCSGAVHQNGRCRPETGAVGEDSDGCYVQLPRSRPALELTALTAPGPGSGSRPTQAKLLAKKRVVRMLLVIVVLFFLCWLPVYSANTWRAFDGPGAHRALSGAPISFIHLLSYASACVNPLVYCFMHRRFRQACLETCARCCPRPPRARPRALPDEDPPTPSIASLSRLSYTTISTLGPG
The test can be described thus: Competition binding against [125I][I-Tyr12,Leu15]gastrin-17 in HEK293-CCK2i4svR cell membranes. The note with it: vs [125I][I-Tyr12,Leu15]gastrin-17, HEK293-CCK2i4svR cell membranes, 1 h 22 °C; mean ± SD. As for the experimental part: Competition binding assays for the metal-free GAS1/2/3 and the corresponding metal-tagged [^natGa]Ga/[^natIn]In/[^natLu]Lu-GAS1/3 and [^natGa]Ga/[^natIn]In-GAS2 analogs were conducted against the [^125I][I-Tyr^12,Leu^15]gastrin-17 radioligand in membrane homogenates harvested from HEK293-CCK2i4svR cells, as previously described. Briefly, each of the above analogs, or unmodified Z360 serving as control, was incubated in triplicates of increasing concentrations (10^−13–10^−6 M) with [^125I][I-Tyr^12,Leu^15]gastrin-17 (50 pM, ≈40,000 cpm) and membrane homogenate in binding buffer (300 µL, pH 7.4, 50 mM HEPES, 1% BSA, 5.5 mM MgCl2, 35 µM bacitracin) for 1 h at 22 °C. Incubation was interrupted by rapid filtration through glass fiber filters (Whatman GF/B, presoaked in binding buffer for at least 1 h) on a Brandel Cell Harvester (Adi Hassel Ingenieur Büro, Munich, Germany) and subsequent rinsing with ice-cold washing buffer (10 mM HEPES pH 7.4, 150 mM NaCl). The radioactivity content of individual filters was measured in a gamma counter (automated multi-sample well-type instrument with a NaI(Tl) 3′ crystal, Canberra Packard Cobra^TM Quantum U5003/1, Auto-Gamma® counting system). The 50% inhibitory concentration (IC50) was determined by nonlinear regression analysis according to a one-site model using PRISM 6 (Graph Pad Software, San Diego, CA, USA). Values are expressed as mean ± standard deviation (SD) of three independent experiments performed in triplicate.

For orientation: IC50 means the point on the concentration scale where inhibition reaches its midpoint. Low readings indicate higher potency, high ones lower potency.

As for `CC(C)(C)C(=O)CN1C(=O)[C@H](NC(=O)Nc2cccc(C(=O)NCCOCCOCCOCCNC(=O)[C@H](CCC(=O)O)NC(=O)CCC(C(=O)O)N3CCN(CC(=O)[O-])CCN(CC(=O)[O-])CCN(CC(=O)[O-])CC3)c2)CN(C2CCCCC2)c2ccccc21.[Ga+3]` (some centres unmarked) [[^natGa]Ga-GAS3], the concentration for half-maximal inhibition (IC50) was found to be 4.8 ± 0.6 nM.

In turn, `CC(C)(C)C(=O)CN1C(=O)[C@H](NC(=O)Nc2cccc(C(=O)NCCOCCOCCOCCNC(=O)[C@H](CCC(=O)O)NC(=O)CN3CCN(CC(=O)[O-])CCN(CC(=O)[O-])CCN(CC(=O)[O-])CC3)c2)CN(C2CCCCC2)c2ccccc21.[Lu+3]` [[^natLu]Lu-GAS1] returned an IC50 of 12.4 ± 0.2 nM.

Turning to `CC(C)(C)C(=O)CN1C(=O)[C@H](NC(=O)Nc2cccc(C(=O)NCCOCCOCCOCCNC(=O)[C@H](CCC(=O)O)NC(=O)CCC(C(=O)O)N3CCN(CC(=O)[O-])CCN(CC(=O)[O-])CCN(CC(=O)[O-])CC3)c2)CN(C2CCCCC2)c2ccccc21.[In+3]` (some centres unmarked) [[^natIn]In-GAS3], the IC50 worked out at 1.9 ± 0.2 nM. This IC50 is about 6.5-fold lower than that of the compound before.

The compound `CC(C)(C)C(=O)CN1C(=O)[C@H](NC(=O)Nc2cccc(C(=O)NCCOCCOCCOCCNC(=O)[C@H](CCC(=O)O)NC(=O)CCC(C(=O)O)N3CCN(CC(=O)[O-])CCN(CC(=O)[O-])CCN(CC(=O)[O-])CC3)c2)CN(C2CCCCC2)c2ccccc21.[Lu+3]` (some centres unmarked) [[^natLu]Lu-GAS3] had an IC50 of 4.3 ± 0.9 nM.

The compound `CC(C)(C)C(=O)CN1C(=O)[C@H](NC(=O)Nc2cccc(C(=O)NCCOCCOCCOCCNC(=O)[C@H](CCC(=O)O)NC(=O)CCC(C(=O)[O-])N3CCN(CC(=O)[O-])CCN(CC(=O)[O-])CC3)c2)CN(C2CCCCC2)c2ccccc21.[Ga+3]` (some centres unmarked) [[^natGa]Ga-GAS2] came in with an IC50 of 8.8 ± 1.6 nM.

In the case of `CC(C)(C)C(=O)CN1C(=O)[C@H](NC(=O)Nc2cccc(C(=O)NCCOCCOCCOCCNC(=O)[C@H](CCC(=O)O)NC(=O)CN3CCN(CC(=O)[O-])CCN(CC(=O)[O-])CCN(CC(=O)[O-])CC3)c2)CN(C2CCCCC2)c2ccccc21.[Ga+3]` [[^natGa]Ga-GAS1], the IC50 is 13.8 ± 2.7 nM.

Compound `CC(C)(C)C(=O)CN1C(=O)[C@H](NC(=O)Nc2cccc(C(=O)NCCOCCOCCOCCNC(=O)[C@H](CCC(=O)O)NC(=O)CCC(C(=O)[O-])N3CCN(CC(=O)[O-])CCN(CC(=O)[O-])CC3)c2)CN(C2CCCCC2)c2ccccc21.[In+3]` (some centres unmarked) [[^natIn]In-GAS2] returned an IC50 of 53.2 ± 2.7 nM.

As to `CC(C)(C)C(=O)CN1C(=O)[C@H](NC(=O)Nc2cccc(C(=O)NCCOCCOCCOCCNC(=O)[C@H](CCC(=O)O)NC(=O)CN3CCN(CC(=O)[O-])CCN(CC(=O)[O-])CCN(CC(=O)[O-])CC3)c2)CN(C2CCCCC2)c2ccccc21.[In+3]` [[^natIn]In-GAS1], the IC50 worked out at 5 ± 1.1 nM.

The values are drawn from PMC8954547, “Nonpeptidic Z360-Analogs Tagged with Trivalent Radiometals as Anti-CCK2R Cancer Theranostic Agents: A Preclinical Study” (Pharmaceutics, 2022).
